The values that follow come from patent US20060025566A1, “Macrocyclic modulators of the ghrelin receptor” (Tranzyme Pharma Inc., priority 2003, published 2006).

T1 sequence (Q92847 whole entry): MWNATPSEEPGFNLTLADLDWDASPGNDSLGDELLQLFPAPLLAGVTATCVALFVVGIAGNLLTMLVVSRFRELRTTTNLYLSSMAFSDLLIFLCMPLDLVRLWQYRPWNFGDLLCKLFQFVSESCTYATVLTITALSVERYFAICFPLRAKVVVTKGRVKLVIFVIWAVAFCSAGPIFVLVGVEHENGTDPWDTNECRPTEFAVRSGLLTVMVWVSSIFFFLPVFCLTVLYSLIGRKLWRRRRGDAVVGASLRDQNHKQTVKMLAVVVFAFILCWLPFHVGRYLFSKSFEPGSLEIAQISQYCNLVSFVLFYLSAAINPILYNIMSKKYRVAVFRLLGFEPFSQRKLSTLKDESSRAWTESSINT

The first test addresses T1, human growth hormone secretagogue receptor (hGHS-R1a) (Homo sapiens, UniProt Q92847).
T1 construct: purchased PerkinElmer BioSignal #RBHGHSM, lot#1887; host or cells: HEK-293, stably transfected (membranes)
As to the kind of experiment: Competitive radioligand binding assay (ghrelin receptor), [125I]-ghrelin displacement on GHS-R/HEK 293 membranes. Conditions: Table 3E, human ghrelin receptor; read-out: Ki. How it is done:
The competitive binding assay at the human growth hormone secretagogue receptor (hGHS-R1a) was carried out analogously to assays described in the literature.
Multiscreen Harvest plates-GF/C (Millipore, #MAHFC 1H60) • 4. […] Bottom seal (Millipore, #MATAH0P00) • 7. […] Binding Buffer: 25 mM Hepes (pH 7.4), 1 mM CaCl2, 5 mM MgCl2, 2.5 mM EDTA, 0.4% BSA Assay Volumes
Competition experiments were performed in a 300 μl filtration assay format. • 1. 220 μL of membranes diluted in binding buffer • 2. 40 μL of compound diluted in binding buffer • 3. […] Compound Handling
Compounds were provided frozen on dry ice at a stock concentration of 10 mM diluted in 100% DMSO and stored at −80° C. until the day of testing. On the test day, compounds were allowed to thaw at rt O/N and then diluted in assay buffer according to the desired test concentrations.
Plates were sealed with TopSeal-A, vortexed gently and incubated at rt for 30 min. The reaction was arrested by filtering samples through Multiscreen Harvest plates (pre-soaked in 0.5% polyethyleneimine) using a Tomtec Harvester, washed 9 times with 500 μL of cold 50 mM Tris-HCl (pH 7.4, 4° C.), and then plates were air-dried in a fumehood for 30 min. A bottom seal was applied to the plates prior to the addition of 25 μL of MicroScint-0 to each well. […] Results were expressed as counts per minute (cpm).
Data were analyzed by GraphPad Prism (GraphPad Software, San Diego, Calif.) using a variable slope non-linear regression analysis.
• 1. […] Key Aspects of Method • 1. […] Results
As usually defined, the Ki is the dissociation constant of the complex between target and ligand, obtained from inhibition or displacement. `CCC(C)C1NCCOc2ccccc2CCCNC(=O)C(Cc2ccccc2)N2CCC(C2=O)N(C)C1=O` (stereo not drawn) [230 diastereomer]: the Ki is 1000 to 10000 nM.

Still in this test, the particulars now being: binding activity at the human ghrelin receptor, [125I]-ghrelin competition, GHS-R/HEK 293 membranes; read-out: Ki.
In the case of `CCC(C)C1NCCOc2ccccc2CCCNC(=O)C(Cc2ccccn2)NC(=O)C(C)N(C)C1=O` (stereo not drawn) [compound 32], the Ki was 10 to 100 nM.
The same measure, in the same setting: with `CCC(C)C1NCCOc2ccccc2CCCNC(=O)C(Cc2ccccc2)NC(=O)C(CC)N(C)C1=O` (stereo not drawn) [compound 41] the figure was 10 to 100 nM.
Still for that read-out and setting: the figure for `CC(C)CC1NCCOc2ccccc2C=CCNC(=O)C(CC(C)C)NC(=O)C2(CCCC2)NC1=O` (stereo not drawn) [compound 47] is > 10000 nM; for `CCC[C@@H]1NCCOc2ccccc2CCCNC(=O)[C@@H](C)NC(=O)CN(C)C1=O` [compound 49] it is > 10000 nM.
Regarding `CCC[C@@H]1NCCOc2ccccc2CCCNC(=O)CNC(=O)CN(C)C1=O` [compound 51], the Ki was > 10000 nM.
Same read-out and setting: with `CCCC[C@H]1NC(=O)CN(C)C(=O)[C@H](CCC)NCCOc2ccccc2CCCNC1=O` [compound 52] the figure was 100 to 1000 nM; with `CCC[C@@H]1NCCOc2ccccc2CCCNC(=O)[C@@H](CCCN)NC(=O)CN(C)C1=O` [compound 53], > 10000 nM; with `CCC[C@@H]1NCCOc2ccccc2CCCNC(=O)[C@@H](Cc2ccccc2)NC(=O)[C@H](C)NC1=O` [compound 59], 1000 to 10000 nM.
As to `CCC[C@@H]1NCCOc2ccccc2CCCNC(=O)[C@@H](Cc2ccccc2)NC(=O)[C@@H](C)NC1=O` [compound 60], the Ki lay within 100 to 1000 nM.
Still for that read-out and setting: the figure for `CCC[C@@H]1NCCOc2ccccc2CCCNC(=O)[C@@H](Cc2ccccc2)NC(=O)CNC1=O` [compound 61] is 100 to 1000 nM.
Regarding `CCC[C@@H]1NCCOc2ccccc2CCCNC(=O)[C@@H](Cc2ccccc2)NC(=O)[C@H](CC(C)C)NC1=O` [compound 62], the inhibition constant Ki lay in the range of 1000 to 10000 nM.
Regarding `CCC[C@@H]1NCCOc2ccccc2CCCNC(=O)[C@@H](Cc2ccccc2)NC(=O)[C@@H](CC(C)C)NC1=O` [compound 63], the Ki is > 10000 nM.
On to `CCC[C@@H]1NCCOc2ccccc2CCCNC(=O)[C@@H](Cc2ccccc2)NC(=O)[C@H](Cc2ccccc2)NC1=O` [compound 64], for which the Ki is > 10000 nM.
In the case of `CCC[C@@H]1NCCOc2ccccc2CCCNC(=O)[C@@H](Cc2ccccc2)NC(=O)C2(CCCC2)NC1=O` [compound 67], the inhibition constant Ki was in the range of 100 to 1000 nM.
Turning to `CCC[C@@H]1NCCOc2ccccc2CCCNC(=O)[C@@H](Cc2ccccc2)NC(=O)[C@H](CCCCN)NC1=O` [compound 68], the Ki fell in the range of 1000 to 10000 nM.
On the same count and under the same terms, with `C[C@@H]1NCCOc2ccccc2CCCNC(=O)[C@@H](Cc2ccccc2)NC(=O)CN(C)C1=O` [compound 72] the figure was 1000 to 10000 nM.
Still for that read-out and setting: with `CN1CC(=O)N[C@H](Cc2ccccc2)C(=O)NCCCc2ccccc2OCCN[C@@H](CCC(=O)O)C1=O` [compound 73] the figure was > 10000 nM.
The same measure, in the same setting: with `CN1CC(=O)N[C@H](Cc2ccccc2)C(=O)NCCCc2ccccc2OCCN[C@@H](CCCCN)C1=O` [compound 74] the figure was 1000 to 10000 nM; with `CN1CC(=O)N[C@H](Cc2ccccc2)C(=O)NCCCc2ccccc2OCCN[C@@H](CO)C1=O` [compound 76], > 10000 nM.
In the case of `CN1CC(=O)NC(Cc2ccccc2)C(=O)NCCCc2ccccc2OCCNCC1=O` (stereo not drawn) [compound 80], the Ki is > 10000 nM.
Still for that read-out and setting: with `CCCC1NCCOCCNC(=O)C(Cc2ccccc2)NC(=O)CN(C)C1=O` (stereo not drawn) [compound 81] the figure was > 10000 nM; with `CCCC1NCCC#CCCNC(=O)C(Cc2ccccc2)NC(=O)CN(C)C1=O` (stereo not drawn) [compound 82], > 10000 nM.
`CCCC1NCCC=CCCNC(=O)C(Cc2ccccc2)NC(=O)CN(C)C1=O` (stereo not drawn) [compound 83]: the Ki is > 10000 nM.
Still for that read-out and setting: the figure for `CCCC1NCc2cccc(c2)CNC(=O)C(Cc2ccccc2)NC(=O)CN(C)C1=O` (stereo not drawn) [compound 84] is 1000 to 10000 nM; for `CCCC1NCc2cccc(c2)CCNC(=O)C(Cc2ccccc2)NC(=O)CN(C)C1=O` (stereo not drawn) [compound 85] it is > 10000 nM.
As to `CCCC1NCc2csc(n2)CNC(=O)C(Cc2ccccc2)NC(=O)CN(C)C1=O` (stereo not drawn) [compound 86], the Ki is > 10000 nM.
On the same count and under the same terms, the figure for `CC(C)C[C@@H]1NCCOc2ccccc2CCCNC(=O)[C@H](Cc2ccc(O)cc2)NC(=O)C2(CCCC2)NC1=O` [compound 88] is 1000 to 10000 nM; for `CC(C)C[C@@H]1NCCOc2ccccc2CCCNC(=O)[C@H](Cc2c[nH]c3ccccc23)NC(=O)C2(CCCC2)NC1=O` [compound 89] it is 1000 to 10000 nM; for `CC(C)C[C@@H]1NCCOc2ccccc2CCCNC(=O)[C@H](CCc2ccccc2)NC(=O)C2(CCCC2)NC1=O` [compound 90] it is 1000 to 10000 nM.
The same measure, in the same setting: the figure for `CC(C)CC1NCCOc2ccccc2CCCNC(=O)C(CCCCN)NC(=O)C2(CCCC2)NC1=O` (stereo not drawn) [compound 91] is > 10000 nM.
`CC(C)C[C@@H]1NCCOc2ccccc2CCCNC(=O)[C@H](CCC(=O)O)NC(=O)C2(CCCC2)NC1=O` [compound 92]: the inhibition constant Ki was > 10000 nM.
Consider `CC(C)CC1NCCOc2ccccc2CCCNC(=O)C(Cc2ccccc2)NC(=O)C(C)NC1=O` (stereo not drawn) [compound 93], for which the inhibitory constant (Ki) was 1000 to 10000 nM.
For the compound `CC(C)C[C@@H]1NCCOc2ccccc2CCCNC(=O)[C@H](Cc2ccccc2)NC(=O)[C@@H](C)NC1=O` [compound 94], the inhibition constant (Ki) was 1000 to 10000 nM.
With `CC(C)C[C@@H]1NCCOc2ccccc2CCCNC(=O)[C@H](Cc2ccccc2)NC(=O)C(C)(C)NC1=O` [compound 95], the inhibitory constant (Ki) lay in the range of 1000 to 10000 nM.
On the same count and under the same terms, with `CC(C)CC1NCCOc2ccccc2CCCNC(=O)C(Cc2ccccc2)NC(=O)C2(CCCC2)NC1=O` (stereo not drawn) [compound 96] the figure was > 10000 nM; with `CC(C)C[C@H]1NCCOc2ccccc2CCCNC(=O)[C@@H](Cc2ccccc2)NC(=O)C2(CCCC2)NC1=O` [compound 98], > 10000 nM.
Still for that read-out and setting: with `C[C@@H]1NCCOc2ccccc2CCCNC(=O)[C@H](Cc2ccccc2)NC(=O)C2(CCCC2)NC1=O` [compound 100] the figure was 100 to 1000 nM.
In the case of `CCCC[C@@H]1NCCOc2ccccc2CCCNC(=O)[C@H](Cc2ccccc2)NC(=O)C2(CCCC2)NC1=O` [compound 101], the inhibitory constant (Ki) was 100 to 1000 nM.
For `O=C1NC2(CCCC2)C(=O)N[C@@H](Cc2ccccc2)C(=O)NCCCc2ccccc2OCCN[C@H]1Cc1ccccc1` [compound 102], the Ki lay in the range of 100 to 1000 nM.
Turning to `NCCCC[C@@H]1NCCOc2ccccc2CCCNC(=O)[C@H](Cc2ccccc2)NC(=O)C2(CCCC2)NC1=O` [compound 103], the inhibition constant (Ki) is > 10000 nM.
For the compound `O=C(O)CC[C@@H]1NCCOc2ccccc2CCCNC(=O)[C@H](Cc2ccccc2)NC(=O)C2(CCCC2)NC1=O` [compound 104], the inhibitory constant (Ki) was > 10000 nM.
Take `O=C1NC2(CCCC2)C(=O)N[C@@H](Cc2ccccc2)C(=O)NCCCc2ccccc2OCCN[C@H]1CO` [compound 105]: the inhibition constant Ki lay within 100 to 1000 nM.
On to `O=C1CNCCOc2ccccc2CCCNC(=O)C(Cc2ccccc2)NC(=O)C2(CCCC2)N1` (stereo not drawn) [compound 112], for which the Ki lay within 1000 to 10000 nM.
Regarding `CC(C)CC1NCc2ccc(cc2)CCNC(=O)C(Cc2ccccc2)NC(=O)C2(CCCC2)NC1=O` (stereo not drawn) [compound 115], the inhibition constant Ki was > 10000 nM.
Consider `CC(C)C[C@@H]1NCCOc2ccccc2CCCNC(=O)[C@@H](Cc2ccccc2)NC(=O)[C@@H](C)N(C)C1=O` [compound 118], for which the Ki was 10 to 100 nM.
On the same count and under the same terms, the figure for `C[C@@H]1C(=O)N[C@H](Cc2ccccc2)C(=O)NCCCc2ccccc2OCCN[C@@H]([C@@H](C)O)C(=O)N1C` [compound 119] is 100 to 1000 nM; for `CO[C@H](C)[C@@H]1NCCOc2ccccc2CCCNC(=O)[C@@H](Cc2ccccc2)NC(=O)[C@@H](C)N(C)C1=O` [compound 120] it is 10 to 100 nM; for `C[C@@H]1C(=O)N[C@H](Cc2ccccc2)C(=O)NCCCc2ccccc2OCCNC2(CC2)C(=O)N1C` [compound 121] it is > 10000 nM.
Still for that read-out and setting: with `O=C1NC2(CCCC2)C(=O)NC(Cc2ccccc2)C(=O)NCC=Cc2ccccc2OCCNC1Cc1ccc(F)cc1` (stereo not drawn) [compound 125] the figure was > 10000 nM; with `COc1ccc(CC2NCCOc3ccccc3C=CCNC(=O)C(Cc3ccccc3)NC(=O)C3(CCCC3)NC2=O)cc1` (stereo not drawn) [compound 127], 100 to 1000 nM; with `O=C1NC2(CCCC2)C(=O)NC(Cc2ccccc2)C(=O)NCC=Cc2ccccc2OCCNC1Cc1cccc2ccccc12` (stereo not drawn) [compound 130], 1000 to 10000 nM.
Still for that read-out and setting: with `O=C1NC2(CCCC2)C(=O)N[C@@H](Cc2ccccc2)C(=O)NC/C=C/c2ccccc2OCCN[C@H]1Cc1cccnc1` [compound 132] the figure was > 1000 nM; with `CCC(C)C1NCCOc2ccccc2CCCNC(=O)C(Cc2ccccc2)NC(=O)C(C(C)C)N(C)C1=O` (stereo not drawn) [compound 144], 100 to 1000 nM; with `CCC(C)C1NCCOc2ccccc2CCCNC(=O)C(Cc2ccccc2)NC(=O)C(CC(C)C)N(C)C1=O` (stereo not drawn) [compound 147], > 1000 nM.
Consider `CC[C@H](C)[C@@H]1NCCOc2ccccc2CCCNC(=O)[C@@H](Cc2ccccc2)NC(=O)[C@H](CC(C)C)N(C)C1=O` [compound 148], for which the Ki was > 1000 nM.
The same measure, in the same setting: with `CCC(C)C1NCCOc2ccccc2CCCNC(=O)C(Cc2ccccc2)NC(=O)C(C(C)CC)N(C)C1=O` (stereo not drawn) [compound 149] the figure was 1000 to 10000 nM.
